Values after ≈ are worked out from the molar mass of the structure shown.
Assays:
[1] = Cytotoxicity against monkey LLC-MK2 cells assessed as reduction in cell viability measured after 48 hrs by MTT assay; format: toxicity, cell-based, Macaca mulatta; details: rhesus monkey
Nonstructural protein 5 [2] = biological target: T1, Nonstructural protein 5 (Dengue virus, UniProt V5TFZ2); test: Inhibition of DENV His-tagged recombinant NS5/RNA-dependent RNA polymerase
Nonstructural protein 5 [3] = biological target: T1, Nonstructural protein 5; test: Inhibition of DENV/NS5 RNA-dependent RNA polymerase
[4] = Inhibition of DENV RNA-dependent RNA polymerase activity; design: species or system Dengue virus
[5] = Cytotoxicity against asian tiger mosquito C6/36 cells assessed as reduction in cell viability measured after 24 hrs by MTT assay; format: toxicity, cell-based; details: aedes albopictus
Nonstructural protein 5 [6] = biological target: T1, Nonstructural protein 5; test: Inhibition of DENV C-terminal histidine-tagged NS5/RNA-dependent RNA polymerase
[7] = Cytotoxicity against African green monkey Vero cells assessed as reduction in cell viability measured after 72 hrs by MTT assay; format: toxicity, cell-based; details: chlorocebus sabaeus
dengue virus type 2 = test: Antiviral activity against Dengue virus 2 infected in African green monkey Vero cells assessed as suppression of viral replication; format: functional, organism-based
PBMC = test: Cytotoxicity against human PBMC cells assessed as reduction in cell viability measured after 48 hrs by Cell-titer glo luminescent assay; format: functional
A549 [8] = test: Cytotoxicity against human A549 cells assessed as reduction in cell viability measured after 48 hrs by Cell-titer glo luminescent assay; format: functional
[9] = Cytotoxicity against hamster BHK-21 cells assessed as reduction in cell viability measured after 48 hrs by Cell-titer glo luminescent assay; format: toxicity, cell-based, Mesocricetus auratus
Huh-7 [10] = test: Cytotoxicity against human Huh-7 cells assessed as reduction in cell viability measured after 48 hrs by Cell-titer glo luminescent assay; format: functional
[11] = Inhibition of Dengue virus RNA-dependent RNA polymerase in human Huh-7 cells; format: cell-based
[12] = Inhibition of DENV-4 full length NS5/RNA-dependent RNA polymerase in Huh-7 cells; format: cell-based, dengue virus type 4
Huh-7 [13] = test: Cytotoxicity against human Huh-7 cells assessed as reduction in cell viability measured after 48 hrs by Celltiter-glo assay; format: functional
[14] = Inhibition of DENV-2 full length His-tagged RNA-dependent RNA polymerase expressed in Escherichia coli Rosetta cells BL21 (DE3) cells incubated for 2 hrs; design: species or system dengue virus type 2
[15] = Inhibition of DENV3 N-terminal 6-His-tagged RNA-dependent RNA polymerase expressed in Escherichia coli BL21; design: species or system dengue virus type 3
[16] = Cytotoxicity against African green monkey Vero E6 cells assessed as reduction in cell viability measured after 96 hrs by MTT assay; format: toxicity, cell-based; details: chlorocebus sabaeus, Vero E6 (Vero C1008) cells
[17] = Cytotoxicity against hamster BHK-21 cells assessed as reduction in cell viability measured after 42 hrs by MTT assay; format: toxicity, cell-based, Mesocricetus auratus
[18] = Inhibition of West Nile virus recombinant N-terminal NS5-methyltransferase
[19] = Inhibition of DENV-2 NS5 polymerase incubated for 1 hr by fluorescence based analysis; design: species or system dengue virus type 2
[20] = Cytotoxicity against hamster BHK-21 cells assessed as cell growth inhibition measured after 48 hrs by MTT assay; format: toxicity, cell-based, Mesocricetus auratus
A549 [21] = test: Cytotoxicity against human A549 cells assessed as reduction in cell viability measured after 48 hrs by MTT assay; format: functional
Huh-7 [22] = test: Cytotoxicity against human Huh-7 cells assessed as reduction in cell viability measured after 48 hrs by MTT assay; format: functional
[23] = Cytotoxicity against human HEK293T cells assessed as reduction in cell viability measured after 48 hrs by MTT assay; format: toxicity, cell-based, HEK-293T
[24] = Inhibition of DENV RNA N7 methyltransferase; design: species or system Dengue virus
[25] = Inhibition of Dengue virus 3 nucleoside-2'O-methyltransferase; design: species or system dengue virus type 3
[26] = Inhibition of DENV-3 RNA-dependent RNA polymerase expressed in Escherichia coli; design: species or system dengue virus type 3
[27] = Inhibition of DENV-4 full length NS5/RNA-dependent RNA polymerase; design: species or system dengue virus type 4
[28] = Cytotoxicity against African green monkey Vero cells assessed as reduction in cell viability measured after 3 to 5 days by Cell titer-glo luminescent assay; format: toxicity, cell-based; details: chlorocebus sabaeus, time 3-5 day
Nonstructural protein 5 [29] = biological target: T1, Nonstructural protein 5; test: Inhibition of Dengue virus NS5/RNA-dependent RNA polymerase
Huh-7 [30] = test: Cytotoxicity against human Huh-7 cells assessed as reduction in cell viability measured after 24 hrs by viral-Tox-glo assay; format: functional
[31] = Cytotoxicity against hamster BHK-21 cells assessed as reduction in cell viability measured after 24 hrs by MTT assay; format: toxicity, cell-based, Mesocricetus auratus

T1 sequence (V5TFZ2 whole entry): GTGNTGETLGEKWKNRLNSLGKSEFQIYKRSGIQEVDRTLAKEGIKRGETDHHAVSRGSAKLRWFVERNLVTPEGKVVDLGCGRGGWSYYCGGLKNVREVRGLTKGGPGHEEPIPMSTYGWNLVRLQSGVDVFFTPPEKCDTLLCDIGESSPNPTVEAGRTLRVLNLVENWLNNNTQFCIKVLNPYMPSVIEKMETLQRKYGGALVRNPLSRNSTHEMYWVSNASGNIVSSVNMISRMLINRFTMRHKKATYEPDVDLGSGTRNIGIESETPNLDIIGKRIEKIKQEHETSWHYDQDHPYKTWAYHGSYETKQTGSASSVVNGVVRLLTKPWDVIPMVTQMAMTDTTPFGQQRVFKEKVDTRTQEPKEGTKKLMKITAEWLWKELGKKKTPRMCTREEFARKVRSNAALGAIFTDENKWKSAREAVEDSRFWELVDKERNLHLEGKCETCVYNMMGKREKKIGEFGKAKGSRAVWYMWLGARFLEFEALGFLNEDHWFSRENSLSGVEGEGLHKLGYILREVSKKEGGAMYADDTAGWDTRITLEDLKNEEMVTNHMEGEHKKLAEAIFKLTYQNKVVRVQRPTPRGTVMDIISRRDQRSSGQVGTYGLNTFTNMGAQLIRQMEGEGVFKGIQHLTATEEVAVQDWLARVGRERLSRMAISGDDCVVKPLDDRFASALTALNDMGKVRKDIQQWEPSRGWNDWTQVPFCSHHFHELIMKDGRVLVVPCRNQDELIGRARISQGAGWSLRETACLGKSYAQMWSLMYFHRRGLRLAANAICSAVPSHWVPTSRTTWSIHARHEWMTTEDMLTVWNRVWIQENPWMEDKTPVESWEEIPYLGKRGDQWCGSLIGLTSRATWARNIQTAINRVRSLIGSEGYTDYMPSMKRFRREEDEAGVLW

Question: Which CC50 at 48 h [1] does the source give for `CC(=O)N[C@@H](C(=O)O)C(C)(C)SN=O` here?
Answer: 200 µM

Question: What about the IC50 (Nonstructural protein 5 [2]) of the same compound?
Answer: 150 µM

Question: Which IC50 (Nonstructural protein 5 [3]) does the source give for `O=c1c(O)c(-c2ccc(O[C@@H]3O[C@H](CO)[C@@H](O)[C@H](O)[C@H]3O)c(O)c2)oc2cc(O)cc(O)c12` [SPIRAEOSIDE] here?
Answer: 1.9 µM

Question: With `C#C[C@@]1(O)[C@H](OC(=O)C(C)C)[C@@H](COC(=O)C(C)C)O[C@H]1n1cc(C(N)=O)c2c(N)ncnc21` as the compound, how does the IC50 [4] read?
Answer: 0.1 µM

Question: Which CC50 at 24 h [5] does the source give for `C=C1CC[C@@H]2[C@]3(C)COC(C)(C)O[C@@H]3CC[C@@]2(C)[C@@H]1C/C=C1/C(=O)OC[C@@H]1Oc1c(Cl)cc(Cl)c2ccc(C)nc12` here?
Answer: 15.6 µg/mL (≈ 26 µM)

Question: Which IC50 (Nonstructural protein 5 [6]) does the source give for `O=c1cc(-c2ccc(Oc3c(O)cc4oc(-c5ccc(O)cc5)cc(=O)c4c3O)cc2)oc2cc(O)cc(O)c12` [HINOKIFLAVONE] here?
Answer: 0.26 µM

Question: With `CC(C)(O)[C@@H]1CC[C@](C)([C@H]2[C@@H](O)C[C@@]3(C)[C@@H]4C[C@H](O[C@@H]5O[C@H](CO)[C@@H](O)[C@H](O)[C@H]5O)[C@H]5C(C)(C)[C@@H](O[C@@H]6OC[C@@H](O)[C@H](O)[C@H]6O)CC[C@@]56C[C@@]46CC[C@]23C)O1` as the compound, how does the CC50 at 72 h [7] read?
Answer: > 1000 µg/mL

Question: And the EC50 (dengue virus type 2)?
Answer: 1.56 µg/mL (≈ 1.99 µM)

Question: With `C#C[C@@]1(O)[C@H](O)[C@@H](CO)O[C@H]1n1ccc2c(N)ncnc21` as the compound, how does the CC50 (PBMC) read?
Answer: > 100 µM

Question: And the CC50 (A549 [8])?
Answer: > 100 µM

Question: What about the CC50 at 48 h [9] of the same compound?
Answer: > 100 µM

Question: And the CC50 (Huh-7 [10])?
Answer: > 100 µM

Question: And the IC50 [11]?
Answer: 0.31 µM

Question: With `CC1=C(/C=C/C(C)=C/C=C/C(C)=C/C(=O)Nc2ccc(O)cc2)C(C)(C)CCC1` [FENRETINIDE] as the compound, how does the IC50 [12] read?
Answer: 5 µM

Question: And the CC50 (Huh-7 [13])?
Answer: ≤ 10 µM

Question: With `Nc1cc(C(F)(F)F)ccc1NC(=O)Nc1ccc(S(=O)(=O)Nc2ccc(C(=O)O)cc2)cc1` as the compound, how does the IC50 (Nonstructural protein 5 [2]) read?
Answer: 150 µM

Question: Which CC50 at 72 h [7] does the source give for `CC(C)(O)[C@H]1CC[C@@](C)([C@H]2[C@@H](O)C[C@]3(C)[C@H]4C[C@@H](O)[C@H]5C(C)(C)[C@H](O[C@H]6OC[C@H](O)[C@@H](O)[C@@H]6O[C@H]6O[C@@H](CO)[C@H](O)[C@@H](O)[C@@H]6O)CC[C@]56C[C@]46CC[C@@]23C)O1` here?
Answer: > 1000 µg/mL

Question: And the EC50 (dengue virus type 2)?
Answer: 1.56 µg/mL (≈ 1.99 µM)

Question: With `O=C1[C@@H]2Cc3ccccc3N2[C@@H](c2ccco2)N1Nc1ccccc1` as the compound, how does the IC50 [14] read?
Answer: 2.1 µM

Question: For `O=c1cc(-c2ccc(O)c(-c3c(O)cc4oc(-c5ccc(O)cc5)cc(=O)c4c3O)c2)oc2cc(O)cc(O)c12` [ROBUSTAFLAVONE], which IC50 (Nonstructural protein 5 [6]) is on record?
Answer: 0.33 µM

Question: For `O=C(N[C@@H](Cc1ccc(O)cc1)C(=O)O)c1cc(-c2ccccc2)c(=O)n2c1sc1ccc(OC3CCCCC3)cc12`, which IC50 [15] is on record?
Answer: 1.5 µM

Question: What about the CC50 at 96 h [16] of the same compound?
Answer: > 100 µM

Question: Which CC50 at 72 h [7] does the source give for `CC(=O)O[C@H]1[C@H](O[C@H]2CC[C@]34C[C@]35CC[C@]3(C)[C@@H]([C@@]6(C)CC[C@@H](C(C)(C)O)O6)[C@@H](O)C[C@@]3(C)[C@@H]5C[C@H](O[C@@H]3O[C@H](CO)[C@@H](O)[C@H](O)[C@H]3O)[C@H]4C2(C)C)OC[C@@H](O)[C@@H]1O` here?
Answer: > 1000 µg/mL

Question: What about the EC50 (dengue virus type 2) of the same compound?
Answer: 1.56 µg/mL (≈ 1.89 µM)

Question: For `CC1=C(Nc2c(C)cc(O)cc2O)C(=O)C=c2oc3c(c21)C(C)=C(Nc1c(C)cc(O)cc1O)C(=O)C=3`, which CC50 at 42 h [17] is on record?
Answer: 117 µM

Question: What about the IC50 [18] of the same compound?
Answer: 5.6 µM

Question: For `O=C1[C@@H]2Cc3ccccc3N2[C@@H](c2ccc(O)c(O)c2)N1Nc1ccc([N+](=O)[O-])cc1`, which IC50 [14] is on record?
Answer: 2.3 µM

Question: For `COc1cc(C)c(C(=O)NS(=O)(=O)c2cccc3cccnc23)cc1-c1ccc(C#CCO)s1`, which IC50 [19] is on record?
Answer: 1.9 µM

Question: With `C[C@@H]1O[C@@H](OC[C@H]2O[C@@H](Oc3c(-c4ccc(O)c(O)c4)oc4cc(O)cc(O)c4c3=O)[C@H](O)[C@@H](O)[C@@H]2O)[C@H](O)[C@H](O)[C@H]1O` [RUTIN] as the compound, how does the IC50 (Nonstructural protein 5 [3]) read?
Answer: 2.1 µM

Question: Which CC50 at 48 h [20] does the source give for `CCC(/C(C)=C/c1cc(OC)c(OC)cc1OC)c1cc(OC)c(OC)cc1OC` (stereo not given) here?
Answer: > 80 µM

Question: And the CC50 (A549 [21])?
Answer: > 80 µM

Question: And the CC50 (Huh-7 [22])?
Answer: > 80 µM

Question: What about the CC50 at 48 h [23] of the same compound?
Answer: > 80 µM

Question: What about the IC50 [24] of the same compound?
Answer: 4.5 µM

Question: Which IC50 (Nonstructural protein 5 [2]) does the source give for `Nc1cc(C(F)(F)F)ccc1NC(=O)Nc1cccc(S(=O)(=O)Nc2ccc(C(=O)O)cc2)c1` here?
Answer: 150 µM

Question: Which IC50 [25] does the source give for `NC(=O)c1ncn([C@@H]2O[C@H](COP(=O)(O)OP(=O)(O)OP(=O)(O)O)[C@@H](O)[C@H]2O)n1` [RTP] here?
Answer: 100 µM

Question: Which CC50 at 24 h [5] does the source give for `C=C1CC[C@@H]2[C@](C)(CO)[C@H](O)CC[C@@]2(C)[C@@H]1C/C=C1/C(=O)OC[C@H]1O` [ANDROGRAPHOLIDE] here?
Answer: 15.6 µg/mL (≈ 44.6 µM)

Question: For `CC(=O)Oc1ccc2oc(=O)sc2c1`, which IC50 [26] is on record?
Answer: 287 µM

Question: What about the IC50 [27] of the same compound?
Answer: 445 µM

Question: And the CC50 [28]?
Answer: 50 µM

Question: With `CC(C)OC(=O)[C@H](C)N[P@](=O)(OC[C@H]1O[C@@H](n2ccc(=O)[nH]c2=O)[C@](C)(F)[C@@H]1O)Oc1ccccc1` [SOFOSBUVIR] as the compound, how does the IC50 (Nonstructural protein 5 [29]) read?
Answer: 14.7 µM

Question: And the CC50 (Huh-7 [30])?
Answer: > 100 µM

Question: For `Cc1ccc(C2N(c3ccccc3)CC3=C(CC(C)(C)CC3=O)N2c2ccccc2)cc1` (stereo not given), which CC50 at 24 h [31] is on record?
Answer: 10 µM

Question: With `C[C@@H]1O[C@@H](Oc2c(-c3ccc(O)c(O)c3)oc3cc(O)cc(O)c3c2=O)[C@H](O)[C@H](O)[C@H]1O` [QUERCITRIN] as the compound, how does the IC50 (Nonstructural protein 5 [3]) read?
Answer: 2.1 µM

Question: For `O=c1c(O[C@@H]2O[C@@H](CO)[C@H](O)[C@H]2O)c(-c2ccc(O)c(O)c2)oc2cc(O)cc(O)c12` [AVICULARIN], which IC50 (Nonstructural protein 5 [3]) is on record?
Answer: 1.7 µM

From ChEMBL document CHEMBL5370529, “Perspectives on the current antiviral developments towards RNA-dependent RNA polymerase (RdRp) and methyltransferase (MTase) domains of dengue virus non-structural protein 5 (DENV-NS5)” (Eur J Med Chem, 2023)
